biological target: T1, hT1R1/hT1R3 umami receptor (Homo sapiens, UniProt Q7RTX0+Q7RTX1); assay: In vitro hT1R1/hT1R3 umami taste receptor activation assay (FLIPR, dose response); format: cell-based; conditions: read-out: EC50 for activation of a hT1R1/hT1R3 umami receptor expressed in an HEK293 cell line
T1 construct: expressed in transfected cells; host or cells: HEK293 derivative stably expressing Gα15, clone I-17, expression induced with mifepristone
T1 sequence (Q7RTX1 21-841): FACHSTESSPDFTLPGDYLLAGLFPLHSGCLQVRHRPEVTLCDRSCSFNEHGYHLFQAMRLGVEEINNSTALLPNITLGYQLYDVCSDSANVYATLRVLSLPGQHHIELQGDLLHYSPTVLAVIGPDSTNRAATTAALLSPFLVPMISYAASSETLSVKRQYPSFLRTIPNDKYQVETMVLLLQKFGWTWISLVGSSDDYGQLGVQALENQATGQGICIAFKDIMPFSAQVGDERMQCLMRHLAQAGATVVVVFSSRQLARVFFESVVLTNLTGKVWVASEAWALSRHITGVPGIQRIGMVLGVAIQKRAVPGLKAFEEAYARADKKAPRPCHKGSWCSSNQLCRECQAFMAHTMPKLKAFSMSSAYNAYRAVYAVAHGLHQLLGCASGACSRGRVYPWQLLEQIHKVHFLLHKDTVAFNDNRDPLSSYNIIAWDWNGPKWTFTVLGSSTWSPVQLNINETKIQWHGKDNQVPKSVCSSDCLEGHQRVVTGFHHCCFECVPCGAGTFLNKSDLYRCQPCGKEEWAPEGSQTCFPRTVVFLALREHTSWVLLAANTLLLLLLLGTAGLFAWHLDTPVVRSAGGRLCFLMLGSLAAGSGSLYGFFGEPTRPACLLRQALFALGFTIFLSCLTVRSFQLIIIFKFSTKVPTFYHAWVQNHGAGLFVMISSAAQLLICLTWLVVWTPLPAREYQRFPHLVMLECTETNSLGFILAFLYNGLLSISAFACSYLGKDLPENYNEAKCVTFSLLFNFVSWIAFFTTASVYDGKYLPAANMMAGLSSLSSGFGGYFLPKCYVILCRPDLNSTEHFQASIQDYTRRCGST
T1 sequence (Q7RTX0 21-852): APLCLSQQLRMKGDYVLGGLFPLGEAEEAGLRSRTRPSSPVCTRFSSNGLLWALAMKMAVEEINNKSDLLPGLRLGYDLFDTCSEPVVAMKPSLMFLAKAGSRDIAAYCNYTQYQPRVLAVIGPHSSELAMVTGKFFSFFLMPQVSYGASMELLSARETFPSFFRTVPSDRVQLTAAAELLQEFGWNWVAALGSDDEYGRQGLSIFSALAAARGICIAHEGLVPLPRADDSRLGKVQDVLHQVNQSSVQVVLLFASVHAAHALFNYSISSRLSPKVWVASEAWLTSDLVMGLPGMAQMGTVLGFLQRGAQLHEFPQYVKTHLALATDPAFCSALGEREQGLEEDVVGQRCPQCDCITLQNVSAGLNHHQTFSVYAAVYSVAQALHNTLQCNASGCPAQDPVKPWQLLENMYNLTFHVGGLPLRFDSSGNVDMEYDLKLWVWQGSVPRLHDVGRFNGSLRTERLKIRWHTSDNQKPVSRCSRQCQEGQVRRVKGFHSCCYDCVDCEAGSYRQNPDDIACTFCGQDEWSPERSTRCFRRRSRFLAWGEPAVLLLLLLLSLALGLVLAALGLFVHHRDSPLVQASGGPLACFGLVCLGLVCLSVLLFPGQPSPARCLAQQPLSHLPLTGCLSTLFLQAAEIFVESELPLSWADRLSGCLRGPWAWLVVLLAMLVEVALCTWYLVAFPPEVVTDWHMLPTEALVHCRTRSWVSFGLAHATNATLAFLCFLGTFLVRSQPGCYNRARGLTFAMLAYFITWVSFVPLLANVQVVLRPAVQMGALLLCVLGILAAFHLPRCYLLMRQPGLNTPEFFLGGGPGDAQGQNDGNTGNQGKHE
Description: In order to identify new savory flavoring agents and enhancers, including compounds with savory agonist and enhancer activities (dual activity), the compounds of Formula (I) were screened in primary assays and secondary assays including compound dose response and enhancement assay. In a primary assay for potential ability to modulate umami taste, amide compounds of Formula (I) that can be either savory flavoring agents in their own right or flavor enhancers of MSG are identified and scores of their activities are given as percentage of the maximum MSG intensity (%). In compound dose response, an EC50 is calculated to reflect the potency of the compound as a savory agonist or enhancer.
An HEK293 cell line derivative (See e.g., Chandrashekar, et al., Cell (2000) 100: 703-711) which stably expresses Gα15 and hT1R1/hT1R3 under an inducible promoter (see WO 03/001876 A2) was used to identify compounds with savory tasting properties.
For dose-responses analysis, stimuli were presented in duplicates at 10 different concentrations ranging from 1.5 nM to 30 μM. Activities were normalized to the response obtained with 60 mM monosodium glutamate, a concentration that elicits maximum receptor response. […] Identical results were obtained when analyzing the dose-response data using commercially available software for non-linear regression analysis such as GraphPad PRISM (San Diego, Calif.).

`COC(=O)[C@@H](CC1CCCCC1)NC(=O)c1cc2cc(OC)ccc2o1` [Example 30, (R)-methyl 3-cyclohexyl-2-(5-methoxybenzofuran-2-carboxamido)propanoate] and `COC(=O)[C@@H](CC(C)C)NC(=O)c1cc2cc(Cl)ccc2o1` [Example 32] are within 1.5-fold of each other in EC50: 1140 nM for the first, 820 nM for the second.

Going from `CCC(CC(C)C)NC(=O)c1cc2cc(OC)ccc2o1` (centres unmarked) [Example 31, 5-methoxy-N-(5-methylhexan-3-yl)benzofuran-2-carboxamide] to `CCC(CC(C)C)NC(=O)/C=C/c1ccc(OC)cc1` (centres unmarked) [Example 75], the EC50 falls from 1040 nM to 240 nM (4.3-fold). The second is the more potent here.

First: COC(=O)[C@@H](CC(C)C)NC(=O)c1oc2ccccc2c1C [Example 33, (R)-methyl 4-methyl-2-(3-methylbenzofuran-2-carboxamido)pentanoate]
Second: COC(=O)[C@@H](CC(C)C)NC(=O)c1ccc(F)c(C)c1 [Example 66, (R)-methyl 2-(4-fluoro-3-methylbenzamido)-4-methylpentanoate]
The EC50 of the first is 3.7-fold higher: 1180 nM for the first, 320 nM for the second. The second is the more potent here.

Compared with `CCCC(CCC)NC(=O)c1cc2ccccc2s1` [Example 34, N-(heptan-4-yl)benzo[b]thiophene-2-carboxamide], `CCCC(CCC)NC(=O)c1cc2ccccc2[nH]1` [Example 35, N-(heptan-4-yl)-1H-indole-2-carboxamide] is 32-fold higher in EC50: 210 nM for the first, 6800 nM for the second.

Compared with `COC(=O)[C@@H](CC(C)C)NC(=O)c1cc2cc(C)ccc2[nH]1` [Example 36, (R)-methyl 4-methyl-2-(5-methyl-1H-indole-2-carboxamido)pentanoate], `COC(=O)[C@@H](CC(C)C)NC(=O)c1ccc(C)c(SC)c1` [Example 49, (R)-methyl 4-methyl-2-(4-methyl-3-(methylthio)benzamido)pentanoate] is 66-fold lower in EC50: 6600 nM for the first, 100 nM for the second. The second is the more potent here.

First: CCCC(CCC)NC(=O)c1cc2ccccc2n1C [Example 37, N-(heptan-4-yl)-1-methyl-1H-indole-2-carboxamide]
Second: CCCC(CCC)NC(=O)c1ccc(O)c(C)c1 [Example 58, 4-hydroxy-3-methyl-N-(1-propyl-butyl)-benzamide]
The EC50 of the first is 1.9-fold higher: 1790 nM for the first, 920 nM for the second.

Going from `CCCC(CCC)NC(=O)c1ccc2[nH]cnc2c1` [Example 38, N-(heptan-4-yl)-1H-benzo[d]imidazole-5-carboxamide] to `CCCC(CCC)NC(=O)c1ccc2ocnc2c1` [Example 39, benzooxazole-5-carboxylic acid (1-propylbutyl)amide], the EC50 falls from 18600 nM to 1910 nM (9.7-fold).

Going from `CCCC(CCC)NC(=O)c1ccc2oc(C)nc2c1` [Example 40, 2-Methyl-benzooxazole-5-carboxylic acid (1-propyl-butyl)-amide] to `CCCC(CCC)NC(=O)c1ccc2nc(C)oc2c1` [Example 46, 2-Methyl-benzooxazole-6-carboxylic acid (1-propyl-butyl)-amide], the EC50 rises from 330 nM to 2100 nM (6.4-fold). The first is the more potent here.

Going from `CCCC(CCC)NC(=O)c1ccc(C)c(SC)c1` [Example 48, 4-methyl-3-methylsulfanyl-N-(1-propylbutyl)benzamide] to `CCCC(CCC)NC(=O)c1ccc(Cl)c(C)c1` [Example 64, 4-Chloro-3-methyl-N-(1-propyl-butyl)-benzamide], the EC50 rises from 210 nM to 800 nM (3.8-fold).

Compared with `COC(=O)[C@@H](CC(C)C)NC(=O)c1ccc(SC)cc1` [Example 50, (R)-methyl 4-methyl-2-(4-(methylthio)benzamido)pentanoate], `COC(=O)[C@@H](CC(C)C)NC(=O)c1ccc(SC)cc1OC` [Example 74, (R)-methyl 2-(2-methoxy-4-(methylthio)benzamido)-4-methylpentanoate] is 99-fold higher in EC50: 160 nM for the first, 15800 nM for the second. The first is the more potent here.

`CCCC(CC(C)C)NC(=O)c1ccc(OC)c(C)c1` (centres unmarked) [Example 52, 4-methoxy-3-methyl-N-(2-methylheptan-4-yl)benzamide] and `CCC(CC(C)C)NC(=O)c1ccc(OC)c(C)c1` (centres unmarked) [Example 53, 4-methoxy-3-methyl-N-(5-methylhexan-3-yl)benzamide] are within 1.5-fold of each other in EC50: 100 nM for the first, 90 nM for the second.

Going from `CCCC(NC(=O)c1ccc(OC)c(C)c1)c1ccc(OC)cc1` (centres unmarked) [Example 54, 4-methoxy-N-(1-(4-methoxyphenyl)butyl)-3-methylbenzamide] to `CCCC(COC)NC(=O)c1ccc(OCC)c(C)c1` (centres unmarked) [Example 57, 4-ethoxy-N-(1-methoxypentan-2-yl)-3-methylbenzamide], the EC50 falls from 3140 nM to 690 nM (4.6-fold).

Compared with `COc1ccc(C(=O)N[C@H](CC(C)C)c2nc(C)no2)cc1C` [Example 55, (R)-4-methoxy-3-methyl-N-(3-methyl-1-(3-methyl-1,2,4-oxadiazol-5-yl)butyl)benzamide], `CCC(CC(C)C)NC(=O)c1ccc(C)c(C)c1` (centres unmarked) [Example 70, 3,4-dimethyl-N-(5-methylhexan-3-yl)benzamide] is 32-fold lower in EC50: 5400 nM for the first, 170 nM for the second.

`CCCC(CCC)NC(=O)c1ccc(OCC)c(C)c1` [Example 56, 4-ethoxy-N-(heptan-4-yl)-3-methylbenzamide] and `CCCC(CCC)NC(=O)c1ccc(OCCOC)c(C)c1` [Example 59, N-(heptan-4-yl)-4-(2-methoxyethoxy)-3-methylbenzamide] are within 1.5-fold of each other in EC50: 170 nM for the first, 210 nM for the second.

First: COC(=O)[C@@H](CC(C)C)NC(=O)c1ccc(OC)c(F)c1 [Example 60, (R)-methyl 2-(3-fluoro-4-methoxybenzamido)-4-methylpentanoate]
Second: COC(=O)[C@@H](CC(C)C)NC(=O)c1ccc(OC)c(Cl)c1 [Example 62, (R)-methyl 2-(3-chloro-4-methoxybenzamido)-4-methylpentanoate]
The EC50 of the first is 3.8-fold higher: 300 nM for the first, 80 nM for the second. The second is the more potent here.

First: CCC(CC)NC(=O)c1ccc(OC)c(Cl)c1 [Example 61, 3-chloro-4-methoxy-N-(pentan-3-yl)benzamide]
Second: CCCC(CCC)NC(=O)c1ccc(OC)c(OC)c1 [Example 65, 3,4-Dimethoxy-N-(1-propyl-butyl)-benzamide]
The EC50 of the first is 1.6-fold higher: 560 nM for the first, 360 nM for the second.

Compared with `COc1ccc(C(=O)N[C@H](C)c2ccccc2)cc1Cl` [Example 63, (R)-3-chloro-4-methoxy-N-(1-phenylethyl)benzamide], `COCC(NC(=O)c1ccc(C)c(C)c1)C(C)C` (centres unmarked) [Example 73, N-(1-Methoxymethyl-2-methyl-propyl)-3,4-dimethyl-benzamide] is 2.9-fold lower in EC50: 2500 nM for the first, 870 nM for the second.

`CCCC(NC(=O)c1ccc(C)c(C)c1)C(C)C` (centres unmarked) [Example 68, 3,4-dimethyl-N-(2-methylhexan-3-yl)benzamide] and `CCCC(CC(C)C)NC(=O)c1ccc(C)c(C)c1` (centres unmarked) [Example 69, 3,4-dimethyl-N-(2-methylheptan-4-yl)benzamide] are within 1.5-fold of each other in EC50: 110 nM for the first, 130 nM for the second.

Going from `COCOC[C@@H](CC(C)C)NC(=O)c1ccc(C)c(C)c1` [Example 72, (R)-N-(1-(methoxymethoxy)-4-methylpentan-2-yl)-3,4-dimethylbenzamide] to `CCC(CC)NC(=O)/C=C/c1ccc(OCCO)cc1` [Example 76, N-(1-Ethyl-propyl)-3-[4-(2-hydroxy-ethoxy)-phenyl]-acrylamide], the EC50 rises from 1060 nM to 5800 nM (5.5-fold).
